Columns and labels:
[1] = system: mouse model of BLM-induced lung injury; assay: mRNA levels of inflammatory cytokines in lung tissue (qRT-PCR); type: in vivo; conditions: mice, 30, 60, 90 mg/kg
Procedure: The experiment used qRT-PCR technology to determine the mRNA levels of pro-inflammatory cytokines in lung tissue. Real-time quantitative PCR was used to detect the mRNA levels of TNF-α, IL-6, IL-1β, TGF-β and others.
About 30 mg of cryopreserved lung tissue was weighed and homogenized and lysed by adding 200 μL of Trizol (Takara, 9109 #). The fluid after the lysis in the well was collected by the RNA sterilization-grade pipette tip and transferred to the corresponding sterile EP tube. […] of chloroform was added, shaken vigorously for 30 sec, and centrifuged for 15 minutes in a centrifuge at 4° C. at 12000 rpm. The upper aqueous layer was transferred to a new EP tube, an equal volume of isopropanol was used to precipitate the RNA in the aqueous phase, and the tube was allowed to stand at −20° C. for more than 1 hr. And then the tube was centrifuged for 15 min at 4° C. at 12000 rpm, and the supernatant was discarded. 75% ethanol was added to wash the RNA pellet, and then the tube was centrifuged for 15 min at 4° C. at 12000 rpm, and the supernatant was discarded. The tube was placed at room temperature for 10-20 min to dry the RNA pellet. 25-200 μL of RNase-free water was added for dissolution and stored at −80° C.
PrimeScript™ RT Master Mix (Takara, RR036A) was selected for mRNA reverse transcription. Please refer to the instructions for the system. […]

EGFR = EGFR (Homo sapiens (Human), UniProt P00533); assay: Enzyme selectivity test (ELISA), EGFR; type: biochemical
Procedure: 1) Enzyme reaction substrate Poly(Glu, Tyr) 4:1 was diluted to 20 μg/mL with potassium-free PBS (10 mM sodium phosphate buffer, 150 mM NaCl, pH 7.2-7.4), and the microtiter plate was coated with 125 μL/well and placed at 37° C. for 12-16 hours of reaction. The liquid in the well was discard. The plate was washed three times with T-PBS (potassium-free PBS containing 0.1% Tween-20, 200 μL/well), 5 minutes each time. The ELISA plate was dried in an oven at 37° C. for 1 to 2 hours.
2) Reaction buffer (50 mM HEPES pH 7.4, 50 mM MgCl2, 0.5 mM MnCl2, 0.2 mM Na3VO4, 1 mM DTT) diluted ATP solution (49 μL) was added to each well, 1 μL of the compound to be tested was added to each well, and then 50 μL of DDR2 kinase domain recombinant protein diluted in the reaction buffer was added to start the reaction. Two control wells without ATP were set in each experiment. The plate placed on a shaker (100 rpm) at 37° C. for 1 hour of reaction. The liquid in the well was discarded and the plate was washed three times with T-PBS.
3) Antibody PY99 dilution solution (the antibody was diluted 1:500 with T-PBS containing BSA 5 mg/mL) was added at 100 μL/well, and shaken on a shaker at 37° C. for 0.5 hour of reaction. The liquid in the well was discarded and the plate was washed three times with T-PBS.
4) Horseradish peroxidase labeled goat anti-murine secondary antibody dilution solution (the antibody is diluted 1:2000 with T-PBS containing BSA 5 mg/ml) was added at 100 μL/well, and shaken on a shaker at 37° C. for 0.5 hour of reaction. The liquid in the well was discarded and the plate was washed three times with T-PBS.
5) 2 mg/ml of OPD color developing solution [diluted with 0.1 M citric acid-sodium citrate buffer (pH=5.4) containing 0.03% H2O2] was added at 100 μL/well and reacted for 1 to 10 minutes at 25° C. in the dark.
6) 2M H2SO4 was added at 50 μL/well to stop the reaction, and a tunable wavelength microplate reader VERSAmax was used for reading at a wavelength of 490 nm.
The IC50 value was obtained by four-parameter regression using the software that came with the microplate reader. […]

[2] = system: bronchial epithelial cell line Beas-2B; assay: Cytotoxic activity test (MTS), Beas-2B; type: cell-based, human; conditions: 10 μM
Procedure: Experimental objective: The cytotoxic activity of compound S15 on bronchial epithelial cell line Beas-2B and lung fibroblast cell line MRC-5 was tested.
1) The human bronchial epithelial cell line Beas-2B and the human embryonic lung fibroblast cell line MRC-5 were collected, and inoculated at a certain density (about 5000-10000 cells) on a 96-well plate (the edge wells were filled with sterile water or PBS). A control was set on each plate (100 μL of culture medium was added);
2) The plate was incubated overnight at 37° C., 5% CO2. The plate was turned upside down and observed under the microscope.
3) The solutions of different concentrations of the compounds to be tested were added to each well, and a control well (culture medium and MTS solution with cells but no drug) and a blank well (without cells, medium and MTS solution) were set, 3 to 5 repetition wells were set for each group. Incubation was performed at 37° C. for 48-72 hours.
4) 10 μL/well of MTS/PMS (20:1, Promega Corp) solution was added to each well containing 100 μL of culture medium, and then the plate was gently shaken. The plate was incubated at 37° C. for 2 to 4 hours.
5) M5 microplate reader (Molecular Device, USA) was used to measure the absorbance of the solution at 490 nm. […]

Sequence of EGFR (P00533 25-1210, species assumed): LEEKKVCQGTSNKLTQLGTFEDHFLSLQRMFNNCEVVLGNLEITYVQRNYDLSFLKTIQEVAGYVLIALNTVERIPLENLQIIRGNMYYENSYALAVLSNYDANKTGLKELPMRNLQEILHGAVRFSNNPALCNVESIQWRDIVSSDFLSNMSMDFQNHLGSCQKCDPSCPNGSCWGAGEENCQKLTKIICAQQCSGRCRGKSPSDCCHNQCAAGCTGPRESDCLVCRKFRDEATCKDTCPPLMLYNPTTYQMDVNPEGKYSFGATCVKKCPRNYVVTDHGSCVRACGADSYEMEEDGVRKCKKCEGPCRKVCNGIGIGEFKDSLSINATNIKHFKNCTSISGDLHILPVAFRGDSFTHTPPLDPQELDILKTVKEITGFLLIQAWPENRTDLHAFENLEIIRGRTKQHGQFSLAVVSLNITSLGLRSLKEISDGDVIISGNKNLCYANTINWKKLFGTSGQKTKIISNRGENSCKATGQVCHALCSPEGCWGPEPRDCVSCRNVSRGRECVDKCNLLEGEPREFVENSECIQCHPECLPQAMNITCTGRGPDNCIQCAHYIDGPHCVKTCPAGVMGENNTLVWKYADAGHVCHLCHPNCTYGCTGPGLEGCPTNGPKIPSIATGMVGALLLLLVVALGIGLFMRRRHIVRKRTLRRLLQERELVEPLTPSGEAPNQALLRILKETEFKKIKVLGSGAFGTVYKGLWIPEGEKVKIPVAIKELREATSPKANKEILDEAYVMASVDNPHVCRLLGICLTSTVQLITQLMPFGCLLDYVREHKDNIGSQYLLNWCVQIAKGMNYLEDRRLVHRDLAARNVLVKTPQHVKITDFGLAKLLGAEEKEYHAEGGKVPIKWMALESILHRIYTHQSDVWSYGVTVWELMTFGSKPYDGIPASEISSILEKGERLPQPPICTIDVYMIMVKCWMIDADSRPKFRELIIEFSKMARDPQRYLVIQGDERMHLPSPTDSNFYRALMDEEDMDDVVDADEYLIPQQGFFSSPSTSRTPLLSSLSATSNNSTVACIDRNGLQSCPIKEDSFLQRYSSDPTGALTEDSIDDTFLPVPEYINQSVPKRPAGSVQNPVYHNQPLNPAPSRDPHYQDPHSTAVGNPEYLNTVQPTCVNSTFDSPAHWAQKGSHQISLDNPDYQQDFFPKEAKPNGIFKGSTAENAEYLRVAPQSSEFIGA

## O=C(Nc1cccc(C(F)(F)F)c1)c1ccc(C2CC2)c(-c2ccc3nc(Nc4cnn(C5CC5)c4)ncc3c2)c1 [Compound S15, 4-cyclopropyl-3-(2-((1-cyclopropyl-1H-pyrazol-4-yl)amino)quinazolin-6-yl)-N-(3-(trifluoromethyl)phenyl)benzamide]
[1]
  mRNA levels of pro-inflammatory cytokines TNF-α, IL-1β and IL-6 in lung tissue: significantly reduce the levels of pro-inflammatory cytokines in a dose-dependent manner
EGFR
  IC50: > 1000 nM
[2]
  cytotoxic activity on Beas-2B: almost no toxicity
